{
  "source": "patent US6407139B1",
  "about": "“Neovascularization inhibitor” (Kissei Pharmaceutical Co., Ltd., priority 1996, dated 2002)",
  "type_in_all_cases": "cell-based",
  "key": {"[1]": {"test_system": "human microvascular endothelial cells", "assay": "Tube formation of human microvascular endothelial cells on matrigel (length of tube structures)", "conditions": "18 hours incubation, various concentrations, FIG. 4", "description": "(§1) According to the method of Example 1 (1), human microvascular endothelial cells were cultured to prepare a cell suspension. Number of viable cells was counted under a phase-contrast microscopy using a hemocytometer and cell concentration was adjusted to 4×10^4 cells/ml.\nTranilast was added to 1% aqueous sodium bicarbonate solution to prepare 1.0% solution and dissolved by warming at 70° C. The solution was sterilized with millipore filter and diluted with MVE medium to a prescribed final concentration.\nAn aliquot (0.25 ml) of matrigel (10 mg/ml, Becton Dickinson Labware) was added to a 24-well culture plate (Corning) and was then allowed to solidify by incubation at 37° C. for 1 hour. Suspension (0.25 ml) of human microvascular endothelial cells (4×10^4 cells) and MVE medium (0.25 ml) containing various concentrations of Tranilast were added onto the gel. After 18 hours incubation at 37° C., 5 random fields of one well were photographed at ×40 magnification using a phase-contrast microscopy. The lengths of the tube structures were measured and the mean value was calculated."}, "[2]": {"test_system": "human microvascular endothelial cells", "assay": "Inhibition of proliferation of human microvascular endothelial cells", "conditions": "normal human dermal microvascular endothelial cells, 2 days incubation with various concentrations, FIG. 1", "description": "Normal human dermal microvascular endothelial cells (Cell Systems Corporation) were subcultured in a medium (MVE medium, Cell Systems Corporation) for endothelial cell culture and used for the study. At the logarithmic growth phase, the medium was aspirated and cells were washed with phosphate-buffered saline (PBS(−)) which was added gentlely. Then, the PBS(−) was aspirated, an aliquot of 0.25% trypsin solution containing 0.02% EDTA was added to the culture plate, and the morphology of cells was observed under a phase-contrast microscopy. When cells were going to be round, an equal value of MVE medium was added to the trypsin solution to stop the action of trypsin. Attached cells were harvested from the plate by pipetting the medium using a slender pasture pipette. […] Number of viable cells in an aliquot of the suspension was counted under a phase-contrast microscopy using a hemocytometer. […]\nCell suspension (1 ml) was added to collagen-coated 6-well plate(Toyobo Engineering Co., Ltd.) and cultured at 37° C. under a humidified atmosphere of 5% CO2 in air. […] After harvesting cells from the plate by pipetting using a pasture pipete, number of viable cells was counted using a hemocytometer.\n(§2) Mean and standard variation value of each group were calculated. […]"}, "[3]": {"test_system": "human microvascular endothelial cells", "assay": "Tube formation of human microvascular endothelial cells on matrigel (number of formed network)", "conditions": "18 hours incubation, various concentrations, FIG. 3", "description": "as §1\nTranilast was added to 1% aqueous sodium bicarbonate solution to prepare 0.5% solution and dissolved by warming at 70° C. The solution was sterilized with millipore filter and diluted with MVE medium to a prescribed final concentration.\nAn aliquot (0.25 ml) of matrigel (10 mg/ml, Becton Dickinson Labware) was added to a 24-well culture plate (Corning) and was then allowed to solidify by incubation at 37° C. for 1 hour. Suspension (0.25 ml) of human microvascular endothelial cells (4×10^4 cells) and MVE medium (0.25 ml) containing various concentrations of Tranilast were added onto the gel."}, "[4]": {"test_system": "human microvascular endothelial cells", "assay": "Inhibition of chemotaxis of human microvascular endothelial cells to VEGF", "conditions": "chemotaxis to 100 ng/ml VEGF, 5 hours, 96-well micro chemotaxis chamber, FIG. 2", "description": "According to the method of Example 1 (1), human microvascular endothelial cells were cultured to prepare a cell suspension. Number of viable cells was counted under a phase-contrast microscopy using a hemocytometer and cell concentration was adjusted to 2×10^4 cells/ml.\nTranilast was added to 1% aqueous sodium bicarbonate solution to prepare 0.55% solution and dissolved by warming at 70° C. The solution was sterilized with millipore filter and diluted with DMEM+Ham (1:1) medium to a prescribed final concentration.\nChemotaxis of human dermal microvascular endothelial cells (prepared in (1)) to vascular endothelial growth factor (VEGF) was studied using a 96-well micro chemotaxis chamber (Neuro Probe Inc.). An aliquot (32 μl) of DMEM+Ham (1:1) medium containing 100 ng/ml of VEGF, 0.1% bovine serum and various concentrations of Tranilast was added to the lower cavity of the chemotaxis chamber. An aliquot (50 μl) of medium containing cell suspension and Tranilast was added to the upper cavity of the chamber. Polycarbonate filter (10 μm thickness with 8 μm pore size; Neuro Probe Inc.) coated with type-1 collagen was used for the chemotaxis membrane. […] Number of migrated cells was counted in 5 random fields at ×400 magnification under a phase-contrast microscopy and mean chemotaxis cell number was calculated.\nas §2"}},
  "data": [
    {"smiles": "COc1ccc(/C=C/C(=O)Nc2ccccc2C(=O)O)cc1OC", "note": "[Tranilast, N-(3,4-Dimethoxycinnamoyl)anthranilic acid]", "values": [
      {"measurement": "length of the tube structure (tube formation)", "setting": "[1]", "result": "significantly reduced in a concentration-dependent manner"},
      {"measurement": "proliferation of human microvascular endothelial cells (number of viable cells)", "setting": "[2]", "result": "significantly suppressed"},
      {"measurement": "number of the formed network (tube formation)", "setting": "[3]", "result": "significantly reduced in a concentration-dependent manner"},
      {"measurement": "chemotaxis of human microvascular endothelial cells (number of migrated cells)", "setting": "[4]", "result": "significantly suppressed"}
    ]}
  ]
}
